ChEMBL document CHEMBL1156885, “Structure-based discovery of novel chemotypes for adenosine A(2A) receptor antagonists” (J Med Chem, 2010)
pKi: −log10 of the molar value.

What was measured:
Adenosine receptor A2a [1] = biological target: T1, Adenosine receptor A2a (Homo sapiens, UniProt P29274); test: Inhibition of human adenosine 2A receptor
Adenosine receptor A2a [2] = biological target: T1, Adenosine receptor A2a; test: Inhibition of human adenosine 2A receptor at 32 uM
Adenosine receptor A2a [3] = biological target: T1, Adenosine receptor A2a; test: Inhibition of human adenosine 2A receptor at 2 uM

T1 sequence (P29274 whole entry): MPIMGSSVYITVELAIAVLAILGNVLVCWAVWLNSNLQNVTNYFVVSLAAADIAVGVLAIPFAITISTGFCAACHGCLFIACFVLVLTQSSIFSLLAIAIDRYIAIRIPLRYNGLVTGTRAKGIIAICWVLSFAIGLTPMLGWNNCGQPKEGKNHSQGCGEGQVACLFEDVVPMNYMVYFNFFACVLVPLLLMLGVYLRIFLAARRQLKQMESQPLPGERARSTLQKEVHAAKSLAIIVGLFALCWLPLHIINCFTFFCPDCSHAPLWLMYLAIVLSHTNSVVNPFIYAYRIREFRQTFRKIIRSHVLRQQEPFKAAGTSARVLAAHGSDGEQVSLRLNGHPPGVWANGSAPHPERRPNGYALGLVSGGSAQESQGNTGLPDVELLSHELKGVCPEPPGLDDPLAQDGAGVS

| SMILES | pKi (Adenosine receptor A2a [1]) | other results |
| --- | --- | --- |
| COCCOC(=O)c1sc(N)c(C#N)c1C | 4.77 |  |
| N#Cc1c(N)nc2c(oc3ccccc32)c1-c1ccccc1 | 7.22 | inhibition (Adenosine receptor A2a [2]): 91% |
| Nc1nc(CSc2nnc(N)s2)nc(Nc2ccc(F)cc2)n1 | 4.89 |  |
| Cc1ccccc1NC(=O)CSCc1nc(N)nc(Nc2ccccc2C)n1 | < 4.00 |  |
| Cc1ccc(Nc2nc(N)nc(CSC(C)C(=O)NCc3ccccc3Cl)n2)cc1 (stereo unspecified) | 5.22 |  |
| CC(Sc1nc(N)c(C(=O)Nc2ccccc2)cc1C#N)C(=O)NCc1ccccc1Cl (stereo unspecified) | < 4.00 |  |
| Cc1ccc(Nc2nc(N)nc(CSCCO)n2)cc1 | 4.77 |  |
| Nc1c(C(=O)Nc2ccc(F)cc2)sc2nc3c(cc12)N1CCC3CC1 | < 4.00 |  |
| Nc1c(C(=O)Nc2nccs2)sc2nc3c(cc12)C(=O)CCC3 | 6.00 |  |
| Nc1ncnc2[nH]c(SCCC(=O)O)nc12 | < 4.00 |  |
| COc1ccc(Cl)cc1Nc1nc(N)nc(-c2oc3ccccc3c2C)n1 | 7.49 | inhibition (Adenosine receptor A2a [3]): 80% |
| COc1ccc(-n2ccnc2SCC(=O)c2c(N)n(C3CC3)c(=O)[nH]c2=O)cc1 | 4.60 |  |
| COc1ccc(Nc2nc(N)nc(CSc3nnc(N)s3)n2)cc1 | 4.85 |  |
| CCOC(=O)c1cnc(SCCC(N)=O)nc1N | < 4.00 |  |
| N#CC1=C(NC(=O)CSc2ncc(C#N)c(N)n2)SC2CCCCC12 (stereo unspecified) | 5.21 |  |
| CN(C(=O)CSc1nc(N)nn1-c1ccccc1)c1ccccc1 | < 4.00 |  |
| Nc1nc(SCCCCC(=O)O)c2[nH]cnc2n1 | < 4.00 |  |
| Nc1nc(CSc2nnc3ccccn23)nc(Nc2ccc(F)cc2)n1 | < 4.00 |  |
| Nc1ncnc2sc3c(c12)CCN(C(=O)CN1CSCC1=O)C3 | < 4.00 |  |
| Nc1c(Oc2ccccc2)ccc2c1C(=O)c1ccccc1C2=O | 6.00 |  |
| Cc1ccc(Nc2nc(N)nc(CSC(C)C(=O)N3CCCCCC3)n2)cc1 (stereo unspecified) | 4.48 |  |
| Cc1cc2oc(N)c(C=O)c(=O)c2cc1C | < 4.00 |  |
| Cc1ccc(Nc2nc(N)nc(CN3C(=O)NC4(CCCCC4)C3=O)n2)cc1 | 5.55 |  |
| NC1=C(Nc2cccc(C(F)(F)F)c2)C(=O)c2ccccc2C1=O | 6.25 |  |
| Cc1ccc(Nc2nc(N)nc(CSCC(=O)NC3CC3)n2)cc1 | < 4.00 |  |
| Nc1c(Sc2ccccc2)cc(Sc2ccccc2)c2c1C(=O)c1ccccc1C2=O | 5.72 |  |
| CC(=O)c1snc(Nc2cc(Cl)ccc2F)c1N | 4.39 |  |
| Nc1c(/C=N/c2ccccc2)ccc2c1C(=O)c1ccccc1C2=O | < 4.00 |  |

Second part, led by results:

| pKi (Adenosine receptor A2a [1]) | SMILES | other results |
| --- | --- | --- |
| 6.10 | Cc1cccc(NC2=C(N)C(=O)c3ccccc3C2=O)c1 |  |
| < 4.00 | Nc1c(C(=O)Nc2ccccc2Cl)sc2ncccc12 |  |
| 5.54 | Cc1ccc(N2C(=O)c3cccc(N)c3C2=O)cc1 |  |
| 6.52 | Nc1c(C(=O)Nc2ccccc2F)sc2nc3c(cc12)C(=O)CCC3 |  |
| < 4.00 | Cc1ccc2oc(=N)c3c(N)nc(-c4ccc5c(c4)OCO5)cc3c2c1 |  |
| 6.60 | Nc1ccc(Cl)c2c1C(=O)c1ccccc1C2=O |  |
| < 4.00 | Nc1c(Nc2ccccc2C(=O)O)c2ccccc2oc1=O |  |
| 6.20 | N#Cc1c(N)nc2c(C(N)=O)c(Nc3ccccc3)sc2c1-c1ccccc1 |  |
| < 4.00 | CCOC(=O)c1cnc(SCC(=O)O)nc1N |  |
| 6.28 | COc1ccc(N)c2c1C(=O)c1ccccc1C2=O |  |
| < 4.00 | CC(=O)c1ccc(NC(=O)c2sc3nc4c(cc3c2N)CCCC4)cc1 |  |
| 5.49 | Nc1cccc2c1C(=O)c1ccccc1C2=O |  |
| < 4.00 | Nc1ccc(-c2nc3c(N)cccc3[nH]2)cc1 |  |
| 5.66 | Nc1c(C(=O)c2ccccc2)oc2ccc(Br)cc12 |  |
| 5.57 | CN1CCc2nc3sc(C(=O)Nc4ccc(Cl)cc4)c(N)c3cc2C1 |  |
| < 4.00 | Cc1nc2ccccc2cc1C(=O)OCC(=O)c1c(N)n(C)c(=O)[nH]c1=O |  |
| < 4.00 | COC(=O)c1c(N)oc2c(-c3ccc(C)cc3)c3c(C(=O)OC)c(N)oc3cc12 |  |
| 6.49 | Nc1ccc(N)c2c1C(=O)c1ccccc1C2=O |  |
| 5.16 | Nc1c(C(=O)Nc2ccc(Cl)cc2)sc2ncccc12 |  |
| 6.19 | Cn1c(=O)cc2c3c(c(N)ccc31)C(=O)c1ccccc1-2 |  |
| 5.89 | CCCc1ccc2c(N)c(C(=O)c3ccccc3)sc2n1 |  |
| < 4.00 | Cc1ccc(C(=O)CSc2nc(N)c(C#N)c(-c3cccs3)c2C#N)c(C)c1 |  |
| < 4.00 | CCOC(=O)c1cc(-c2ccc(Br)cc2)cc2c(N)sc(Br)c12 |  |
| 5.04 | CCc1nc2sc(C(=O)c3cccc(Cl)c3)c(N)c2cc1C |  |
| 4.44 | CC(=O)Oc1cccc(-c2nc(C(N)=O)c(N)o2)c1 |  |
| 4.82 | Nc1c(C(=O)Nc2ccc([N+](=O)[O-])cc2)sc2nc3c(cc12)CCCC3 |  |
